This is an account of results in BindingDB's records for doi:10.1016/j.bmcl.2009.11.061 (Glaxosmithkline, 2010).

This assay is described as follows: Inhibition of GSK3beta phosphorylation in human BT474 cells.

As usually defined, the pIC50 is the IC50 on a negative log10 scale, so that one unit is a factor of ten. A lower pIC50 goes with a large IC50.

pIC50: −log10 of the molar value.

Take `Cc1occc1-c1nc(N)c(OC[C@@H](N)Cc2c(Cl)[nH]c3ccccc23)cc1-c1cnc2[nH]nc(C)c2n1` [3-((S)-2-amino-3-(2-chloro-1H-indol-3-yl)propoxy)-5-(3-methyl-1H-pyrazolo[4,3-b]pyrazin-5-yl)-6-(2-methylfuran-3-yl)pyridin-2-amine]: the pIC50 was 6.52.
In turn, `Cc1occc1-c1nc(N)c(OC[C@@H](N)Cc2c(C(N)=O)[nH]c3ccccc23)cc1-c1cnc2[nH]nc(C)c2n1` [3-((2S)-2-amino-3-(2-amino-5-(3-methyl-1H-pyrazolo[4,3-b]pyrazin-5-yl)-6-(2-methylfuran-3-yl)pyridin-3-yloxy)propyl)-1H-indole-2-carboxamide] showed a pIC50 of less than 4.52.
`CCNc1nc(-c2ccoc2)c(-c2cnc3[nH]nc(C)c3n2)cc1OC[C@@H](N)Cc1ccccc1` [(S)-3-(2-amino-3-phenylpropoxy)-N-ethyl-6-(furan-3-yl)-5-(3-methyl-1H-pyrazolo[4,3-b]pyrazin-5-yl)pyridin-2-amine] had a negative-log IC50 (pIC50) of less than 5.00.
In turn, `Cc1occc1-c1nc(N)c(OC[C@@H](N)Cc2c[nH]c3ccccc23)cc1-c1cc2c(C)n[nH]c2cn1` [3-((S)-2-amino-3-(1H-indol-3-yl)propoxy)-5-(3-methyl-1H-pyrazolo[3,4-c]pyridin-5-yl)-6-(2-methylfuran-3-yl)pyridin-2-amine] showed a pIC50 of 6.17.
With `Cc1occc1-c1ncc(OC[C@@H](N)Cc2c[nH]c3ccccc23)cc1-c1cnc2[nH]nc(C)c2n1` [(2S)-1-(1H-indol-3-yl)-3-(5-(3-methyl-1H-pyrazolo[4,3-b]pyrazin-5-yl)-6-(2-methylfuran-3-yl)pyridin-3-yloxy)propan-2-amine], the negative-log IC50 (pIC50) is 6.68. This pIC50 lies 0.51 log units higher than the previous one.
The value for `Cc1nc(-c2ccoc2)c(-c2cnc3[nH]nc(C)c3n2)cc1OC[C@@H](N)Cc1c[nH]c2ccccc12` [(S)-1-(6-(furan-3-yl)-2-methyl-5-(3-methyl-1H-pyrazolo[4,3-b]pyrazin-5-yl)pyridin-3-yloxy)-3-(1H-indol-3-yl)propan-2-amine] was 6.55.
`Cc1n[nH]c2ncc(-c3cc(OC[C@@H](N)Cc4c[nH]c5ccccc45)c(C#N)nc3-c3ccoc3)nc12` [(S)-3-(2-amino-3-(1H-indol-3-yl)propoxy)-6-(furan-3-yl)-5-(3-methyl-1H-pyrazolo[4,3-b]pyrazin-5-yl)picolinonitrile] gave a pIC50 of less than 5.00.
Consider `Cc1occc1-c1nc(N)c(OC[C@@H](N)Cc2c(C#N)[nH]c3ccccc23)cc1-c1cnc2[nH]nc(C)c2n1` [3-((2S)-2-amino-3-(2-amino-5-(3-methyl-1H-pyrazolo[4,3-b]pyrazin-5-yl)-6-(2-methylfuran-3-yl)pyridin-3-yloxy)propyl)-1H-indole-2-carbonitrile], for which the pIC50 was less than 4.52.
In the case of `Cc1occc1-c1nc(N)c(OC[C@@H](N)Cc2c[nH]c3ccccc23)cc1-c1ccc2[nH]nc(C)c2c1` [3-((S)-2-amino-3-(1H-indol-3-yl)propoxy)-5-(3-methyl-1H-indazol-5-yl)-6-(2-methylfuran-3-yl)pyridin-2-amine], the pIC50 is 6.66.
As for `Cc1occc1-c1nc(N)c(OC[C@@H](N)Cc2c[nH]c3ccccc23)cc1-c1cnc2[nH]nc(C)c2n1` [3-((S)-2-amino-3-(1H-indol-3-yl)propoxy)-5-(3-methyl-1H-pyrazolo[4,3-b]pyrazin-5-yl)-6-(2-methylfuran-3-yl)pyridin-2-amine], the pIC50 is 6.25. Against the preceding compound, the pIC50 is 0.41 log units lower.
Consider `Cc1occc1-c1nc(N)c(OC[C@@H](N)Cc2ccccc2)cc1-c1cnc2[nH]nc(C)c2n1` [3-((S)-2-amino-3-phenylpropoxy)-5-(3-methyl-1H-pyrazolo[4,3-b]pyrazin-5-yl)-6-(2-methylfuran-3-yl)pyridin-2-amine], for which the pIC50 is 6.55.
